Measured values: patent US10808009B2, “Peptide conjugates” (BIONIZ, LLC, priority 2011, dated 2020)
No end group written: not given here.

Key:
IL-6 = test: T1165 proliferation in the presence of IL-6 (Example 25); type: cell-based, human or mouse
Protocol: The BNZ130-1 polypeptide as presented in Table 2, above, is tested for its activity in inhibiting IL-6 activity. T1165 cells that are dependent on human or mouse IL-6 for their growth in vitro are selected. The cell line is cultured in the absence of IL-6, In the presence of IL-6, in the presence of BNZ130-1, and in the presence of IL-6 and BNZ130-1.

IL-2 = test: PT-18 proliferation assay, IL-2 (FIG. 3A legend); type: cell-based
Protocol: The growth-responses of the cells were determined 2 days after the introduction of BNZ-γ peptide and the cytokine using the WST-1 assay. […] Cellular proliferation stimulated by IL-4, another γc-cytokine, was not affected by the by the addition of BNZ-γ peptide. Results for IL-3, IL-9, IL-15, and IL-4 are shown at FIG. 3A.

IL-9 = biological target: T1, IL-9 (Mus musculus, UniProt P15247); test: PT-18β proliferation assay (WST-1), IL-9; type: cell-based; settings: PT-18β cells, 1 nM IL-9, BNZ-γ from HEK293T supernatant 1:20 or 1:50, 2 days
T1 sequence (P15247 19-144): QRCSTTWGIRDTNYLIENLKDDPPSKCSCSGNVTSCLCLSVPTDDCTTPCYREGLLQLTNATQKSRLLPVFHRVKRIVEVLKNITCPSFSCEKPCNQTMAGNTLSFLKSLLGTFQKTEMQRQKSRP
Excerpt: (§1) For each of the six γc-cytokines, indicator cell lines: CTLL-2, a murine CD8 T cells line available from American Type Culture Collection, and PT-18, a murine mast cell line and its subclone PT-183, is transfected with human IL-2Rβ gene to make the cells responsive to IL-2 and IL-15 (Tagaya et al., 1996, EMBO J. 15:4928-39), and is used to quantitatively determine the γc-cytokine's growth-promoting activity (See Current protocols in Immunology from Wiley and Sons for a methodological reference). […] Once the appropriate doses of the cytokine that yield the 50% and 95% maximum response from the indicator cell line is determined, various concentrations (ranging from 1 pM to 10 μM) of the purified or synthesized custom derivative peptide is added to each well containing the cytokine and indicator cells. The reduction in light absorbance at 450 nm is used as an indicator of inhibition of cytokine-stimulated cellular proliferation. Typically, the cells are stimulated by the cytokines such that the absorbance of the well containing indicator cell line and the cytokine is between 2.0 and 3.0, which is reduced to a range of 0.1 to 0.5 by the addition of inhibitory peptides.
(§2) The growth-responses of the cells were determined 2 days after the introduction of BNZ-γ peptide and the cytokine using the WST-1 assay. […]

IL-4 = biological target: T2, IL-4 (Mus musculus, UniProt P07750); test: PT-18β proliferation assay (WST-1), IL-4; type: cell-based; settings: PT-18β cells, 1 nM IL-4, BNZ-γ from HEK293T supernatant 1:20 or 1:50, 2 days
T2 sequence (P07750 21-140): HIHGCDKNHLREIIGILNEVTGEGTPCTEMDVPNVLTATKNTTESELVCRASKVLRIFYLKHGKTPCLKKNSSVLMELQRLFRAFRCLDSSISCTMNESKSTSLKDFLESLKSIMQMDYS
Excerpt: as §1, §2

IL-3 = biological target: T3, IL-3 (Mus musculus, UniProt P01586); test: PT-18β proliferation assay (WST-1), IL-3 (non γc-cytokine control); type: cell-based; settings: PT-18β cells, 1 nM IL-3, BNZ-γ from HEK293T supernatant 1:20 or 1:50, 2 days
T3 sequence (P01586 27-166): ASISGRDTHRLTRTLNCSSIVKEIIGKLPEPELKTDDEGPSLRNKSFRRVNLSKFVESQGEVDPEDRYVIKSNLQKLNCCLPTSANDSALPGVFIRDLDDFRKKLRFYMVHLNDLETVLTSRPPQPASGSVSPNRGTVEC
Excerpt: as §1, §2

[1] = test system: IL-15-mediated tyrosine-phosphorylation of STAT5; test: IL-15-mediated tyrosine phosphorylation of STAT5 in PT-18β cells (immunoblot); type: cell-based, murine; settings: PT-18β cells stimulated by IL-15, anti-phospho-STAT5 immunoblot
Excerpt: In addition to stimulating cellular proliferation, binding of the γc-cytokines to their receptors causes a diverse array of intracellular events. (Rochman et al. 2009 Nat. Rev. Immunol. 9:480-90, Pesu et al. 2005 Immunol. Rev. 203:127-142.) Immediately after the cytokine binds to its receptor, a tyrosine kinase called Jak3 (Janus-kinase 3) is recruited to the receptor at the plasma membrane. This kinase phosphorylates the tyrosine residues of multiple proteins including the γc-subunit, STAT5 (Signal Transducer and Activator of Transcription 5) and subunits of the PI3 (Phosphatidylinositol 3) kinase. Among these, the phosphorylation of STAT5 has been implicated in many studies as being linked to the proliferation of cells initiated by the γc-cytokine. (Reviewed in Hennighausen and Robinson, 2008 Genes Dev. 22:711-21.) In accordance with these published data, whether or not the BNZ-γ peptide inhibits the tyrosine phosphorylation of STAT5 molecule in PT-18β cells stimulated by IL-15 was examined (results shown in FIG. 3C).
PT-18β cells were stimulated by IL-15 in the presence or absence of BNZ-γ peptide. Cytoplasmic proteins were extracted from the cells according to a conventional method as described in Tagaya et al. 1996 EMBO J. 15:4928-39. […]

IL-15 = IL-15 (Homo sapiens, UniProt P40933); test: PT-18β proliferation assay (WST-1), IL-15; type: cell-based; settings: PT-18β cells, 1 nM IL-15, BNZ-γ from HEK293T supernatant 1:20 or 1:50, 2 days
IL-15, sequence (P40933 49-162): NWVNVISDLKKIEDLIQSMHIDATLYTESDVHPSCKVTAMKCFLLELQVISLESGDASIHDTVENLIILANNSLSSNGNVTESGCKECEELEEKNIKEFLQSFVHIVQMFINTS
Excerpt: as §1, §2

γc-cytokines = test: Target cytokine spectrum within the γc-family (summary statements); type: cell-based
[2] = test system: T-cells in HAM/TSP culture
Protocol: Proliferation assays were performed on HAM/TSP patient blood samples with and without the addition of BNZ-γ. These assays evaluated the ability of BNZ-γ to block the function of cytokines, such as IL-2 and IL-15, present in the ex vivo HAM/TSP patient blood culture and prevent spontaneous T-cell proliferation in these samples.
In an ex vivo spontaneous T-cell proliferation assay, PBMC from HAM/TSP patient was cultured at 1×10(6) cells per well of a 96 well plate in RPMI-10% FCS. Increasing concentrations of BNZ-γ peptide were added to each well. […] The cells were incubated in a 37° C. CO2 incubator for 3, 4, and 6 days. The amount of 1 uCi of ^3H-thymidine was added to the cells. After an additional 6 hour incubation, cells were harvested their proliferation rate was measured.
Other immunological markers were additionally measured in this assay. […] The population of CD4+CD25+ cells, a marker of T-cell activation, as well as Ki67 staining, a marker of T-cell proliferation, was monitored in a flow cytometry assay.

[3] = HAM/TSP peripheral blood ex vivo culture, flow cytometry

LTHLIERSSRAVLQSLLRASRQ [BNZ130-1] was tested, and the “effect on T1165 survival” value (IL-6; Example 25, with or without IL-6) was “does not affect” and the “antagonistic activity on T1165 proliferation in the presence of IL-6” value (IL-6; Example 25, written in present tense) was “dose-dependent antagonistic activity”.

“I-K-E-F-L-Q-R-F-I-H-I-V-Q-S-I-I-N-T-S (IKEFLQRFIHIVQSIINTS) [BNZ-γ]” was tested, and the “IL-2 activity in PT-18 proliferation assay” value (IL-2) was “inhibition”, the “growth-promoting activity of IL-9” value (IL-9) was “significantly (p<0.01 Student's T test) reduced” and the “cellular proliferation stimulated by IL-4” value (IL-4) was “not affected”. The “growth-promoting activity of IL-3 (non γc-cytokine)” value (IL-3) was “not inhibited”, the “tyrosine phosphorylation of STAT5” value [1] was “markedly reduced” and the “growth-promoting activity of IL-15” value (IL-15) was “significantly (p<0.01 Student's T test) reduced”. The γc-cytokines not inhibited (γc-cytokines) was “IL-4, IL-7 and IL-21”, the γc-cytokines inhibited (γc-cytokines; BNZ132-2 and BNZ132-3 data not shown) was “IL-2, IL-15 and IL-9” and the “percent of live cells by Guava staining” value [2] was “not impacted”. For the same substance, the “concentration at which spontaneous proliferation of T-cells is inhibited” value ([2]; HAM/TSP patient PBMC, 3, 4 and 6 days, 3H-thymidine) was “about 1 ug/ml”, the “population of CD4+CD25+ cells” value [2, 3] was “diminished” and the “population of CD4+Ki67 cells” value [2, 3] was “reduced”.
